{
  "source": "patent US20130109581A1",
  "about": "“POSITIVELY CHARGED SPECIES AS BINDING REAGENTS IN THE SEPARATION OF PROTEIN AGGREGATES FROM MONOMERS” (priority 2009, published 2013)",
  "assay_type_in_all_cases": "binding",
  "key": {"[1]": {"target": "Aβ42 ADDL (Homo sapiens, UniProt P05067)", "experiment": "Misfolded Protein Assay, LoD and capture in CSF: ADDL", "settings": "for LoD: spiked into CSF", "description": "(§1) The Ab42 aggregates were prepared as previously described: fibrils were prepared per Stine et al (JBC 2003, 278, p11612), globulomers were prepared per Barghorn et al (J Neurology 2005 95 p834), ADDLs were prepared per Lambert et al (PNAS 1998, 95 p6448), and ASPDs were prepared per Noguchi et al (JBC 2009 284 p32895). Normal CSF was pooled from clinically characterized non-demented patient CSF samples. AD CSF was pooled from clinically-characterized AD patient samples. Alzheimer's Disease Brain Homogenate (ADBH) was prepared by sonication of clinically diagnosed AD patient brain samples in 0.2M.sucrose (1:10 w/v).\n(§2) For the capture assay (Misfolded Protein Assay), aliquots of the beads (30 ul) were added to wells of a 96 well plate, followed by 125 ul of sample in 80:20 CSF:TBSTT. The plate was sealed and incubated for 1 h at 37 C with shaking. The plate was washed with TBST and the residual buffer removed. A denaturing solution (0.1 N NaOH) was added to each well and the plate heated to 80 C. for 30 min with shaking. After cooling the plate to RT, a neutralizing buffer (0.12 M NaH2PO3-0.4% TW20,) was added and the plate shaken briefly at RT. The assay was analyzed using the triplex Mesoscale Discovery ELISA kit for Aβ. The Aβ in the samples eluted from the beads were detected per the manufacturer's protocol.\n(§3) For the Limit of Detection (LoD) studies, serial dilutions of each aggregate were spiked into CSF and were assayed per the protocol described above. The LoD was defined as 2× over background levels.\n(§4) This pattern minors the capture selectivity observed when these species are tested with 3 ul of PSR1 beads and 1 ng/mL of aggregate."}, "[2]": {"target": "T1, E22G globulomer (beta amyloid 1-42, Arctic mutation) (Homo sapiens, UniProt P05067, E693G)", "T1 construct": "Three beta amyloid 1-42 peptides were generated to test the role of E22; purchased Anaspec", "experiment": "NMPA capture of E22G globulomer", "settings": "neutrally charged mutant; FIG. 8", "source_text": "Three beta amyloid 1-42 peptides were generated to test the role of E22: a wild-type peptide, a mutant peptide containing Arctic mutation E22G with a neutral charge, and a mutant peptide containing Italian mutation E22K with a positive charge. Synthetic peptides were commercially available from Anaspec.\nMutant peptides were oligomerized according to the methods described in Example 3.\nNMPA was used to evaluate the ability of PSR1 to capture the E22G globulomer. The methods used are described in Example 2."}, "[3]": {"target": "T2, Aβ42 Globulomer (Homo sapiens, UniProt P05067)", "T2 construct": "beta amyloid (1-42) was monomerized with incubation in hexafluoroisopropanol", "experiment": "Misfolded Protein Assay, LoD and capture in CSF: globulomer", "settings": "for LoD: spiked into CSF", "description": "as §1, §2, §3, §4"}, "[4]": {"target": "amylin fibrils (Homo sapiens, UniProt P10997)", "sequence (P10997 34-70 limits assumed)": "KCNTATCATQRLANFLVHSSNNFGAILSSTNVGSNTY", "experiment": "MPA of in vitro synthesized amylin", "settings": "buffer and plasma; FIG. 45"}, "[5]": {"target": "alpha synuclein fibrils (Homo sapiens, UniProt P37840)", "experiment": "MPA of alpha-synuclein fibrils in CSF or plasma", "description": "Amylin fibrils were prepared as reported in J. Biological Chem. (1999) 274, No. 28, pp 19509-19512. To denature the fibrils, samples were treated with 5.4 M guanidine thiocyanate for 30 minutes at room temperature. The samples were then diluted to the indicated concentrations and alpha synuclein was detected by a sandwich ELISA (Invitrogen; catalog #KHB0061) according to the manufacturer's instructions.\nThe specificity of PSR1 beads for aggregated alpha synuclein was tested by incubating 3 ul PSR1 beads with fibrillar alpha-synuclein with or without a pretreatment with chemical denaturant (5.4 M guanidine thiocyanate for 30 minutes at room temperature). Alpha synuclein was diluted into 125 ul 80% CSF or plasma in TBSTT (50 mM Tris, 150 mM NaCl, 1% TritonX-100, 1% Tween20) at the indicated concentrations. Samples were incubated for 1 hour at 37 C and 550 rpm before washing with TBS 0.05% Tween20 buffer. Bound alpha synuclein was eluted from the beads with 4 ul 6 M guanidine thiocyanate (30 minutes at room temperature), diluted with 246 ul ELISA diluent buffer and then detected by sandwich ELISA (Invitrogen; catalog #KHB0061)."}, "[6]": {"target": "T3, oligomeric beta amyloid 1-42 (globulomer) (Homo sapiens, UniProt P05067)", "T3 construct": "beta amyloid (1-42) was monomerized with incubation in hexafluoroisopropanol", "experiment": "Misfolded Protein Assay: capture of globulomer spiked into CSF (Example 2)", "settings": "conjugated to cellulose membrane; loading approximately 100× higher than on beads"}, "[7]": {"settings": "3 ul of beads and 1 ng/mL of aggregate"}},
  "note": "Several values for one entry are separate records, joined by “and”; a condition that tells them apart may be missing. Identical values can stand only once.",
  "data": [
    {"substance": "Nab-Nab-Nab-Nbn-Nab-Nbn [PSR1]", "values": [
      {"measurement": "capture of ADDL", "setting": "[1]; [7]", "value": 1219},
      {"measurement": "LoD", "setting": "[1]", "value": "~20", "unit": "amol"},
      {"measurement": "LoD", "setting": "[1]; LoD = 2× over background", "value": "~200 pg/mL and 200 pg/mL"},
      {"measurement": "capture of E22G globulomer", "setting": "[2]", "value": "not captured"},
      {"measurement": "capture of Globulomer", "setting": "[3]; [7]", "value": 1267},
      {"measurement": "LoD", "setting": "[3]", "value": "~140", "unit": "amol"},
      {"measurement": "LoD", "setting": "[3]; LoD = 2× over background", "value": "~75 pg/mL and 75 pg/mL"},
      {"measurement": "binding to amylin fibrils over monomers", "setting": "[4]", "value": "bind preferentially to in vitro-synthesized amylin fibrils over amylin monomers in both buffer (A) and plasma (B)"},
      {"measurement": "binding to alpha synuclein fibrils compared to control bead", "setting": "[5]; diluted into CSF or plasma, FIG. 50", "value": "specifically bound to alpha synuclein (aSyn) fibrils"},
      {"measurement": "binding to alpha synuclein fibrils vs monomers", "setting": "[5]; native vs denatured aSyn in CSF or plasma, FIG. 51", "value": "bound preferentially to alpha synuclein fibrils"},
      {"measurement": "ability to bind preferentially to oligomers in solution", "setting": "[6]", "value": "continued to increase the ability of PSR1 to bind preferentially to oligomers in solution"}
    ]}
  ]
}
